Molecular target: human MGL from HeLa cells (Homo sapiens (Human), UniProt Q99685)
Test: MGL in vitro activity assay: cleavage of [glycerol-1,3-3H]-oleyl glycerol, activated carbon filtration
Format: biochemical
Conditions: 300 nM [Glycerol-1,3-3H]-oleyl glycerol, endogenously expressed MGL from HeLa cells, one hour incubation
Description: The assay used to measure the in vitro activity of MGL is adapted from the assay used for another serine hydrolase (FAAH) described in Wilson et al., 2003 (A high-throughput-compatible assay for determining the activity of fatty acid amide hydrolase. Wilson S J, Lovenberg T W, Barbier A J. Anal Biochem. 2003 Jul. 15; 318(2):270-5.). The assay consists of combining endogenously expressed MGL from HeLa cells with test compounds, adding [glycerol-1,3-^3H]-oleyl glycerol, incubating for one hour, and then measuring the amount of cleaved [1,3-^3H]-glycerol that passes through an activated carbon filter. The amount of cleaved, tritiated glycerol passing through the carbon filter is proportional to the activity of the MGL enzyme in a particular well/test condition.
Standard conditions for this assay combine 300 nM [Glycerol-1,3-^3H]-oleyl glycerol with human MGL from HeLa cells and test compounds for one hour, after which the reaction is filtered through activated carbon and tritium is measured in the flow through. The test compound concentration in screening mode is 10 μM, while the highest compound concentration in IC50 assays is determined empirically. MGL is the predominant hydrolase in HeLa cells/cell homogenates.

human MGL from HeLa cells, sequence (Q99685 whole entry): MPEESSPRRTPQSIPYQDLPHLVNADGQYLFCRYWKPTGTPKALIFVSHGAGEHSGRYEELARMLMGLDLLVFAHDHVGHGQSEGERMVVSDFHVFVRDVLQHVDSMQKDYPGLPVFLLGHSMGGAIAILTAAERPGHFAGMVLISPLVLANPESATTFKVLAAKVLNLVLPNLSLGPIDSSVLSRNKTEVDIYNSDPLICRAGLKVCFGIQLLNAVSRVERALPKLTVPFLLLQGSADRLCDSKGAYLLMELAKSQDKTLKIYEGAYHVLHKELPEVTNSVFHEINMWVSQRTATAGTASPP

## C[C@H]1c2nn(C)c(-c3cc(C(F)(F)F)nn3C)c2CCN1C(=O)c1ccnc2c1ccn2C [Example 46, (S)-(2,7-Dimethyl-3-(1-methyl-3-(trifluoromethyl)-1H-pyrazol-5-yl)-2,4,5,7-tetrahydro-6H-pyrazolo[3,4-c]pyridin-6-yl)(1-methyl-1H-pyrrolo[2,3-b]pyridin-4-yl)methanone]
  IC50: 0.0057 µM

## Cc1nc2ccccc2cc1C(=O)N1CCc2c(nn(C)c2-c2cc(C(F)(F)F)nn2C)[C@@H]1C [Example 13, (S)-(2,7-Dimethyl-3-(1-methyl-3-(trifluoromethyl)-1H-pyrazol-5-yl)-2,4,5,7-tetrahydro-6H-pyrazolo[3,4-c]pyridin-6-yl)(2-methylquinolin-3-yl)methanone]
  IC50: 0.22 µM

## COc1cccc(C(=O)N2CCc3c(nn(C)c3-c3cc(C(F)(F)F)nn3C)[C@@H]2C)c1 [Example 38, (S)-(2,7-Dimethyl-3-(1-methyl-3-(trifluoromethyl)-1H-pyrazol-5-yl)-2,4,5,7-tetrahydro-6H-pyrazolo[3,4-c]pyridin-6-yl)(3-methoxyphenyl)methanone]
  IC50: 0.073 µM

## COc1nccc(C(=O)N2CCc3c(nn(C)c3-c3cnn(C)c3C(F)(F)F)[C@@H]2C)c1C [Example 60, (S)-(2,7-Dimethyl-3-(1-methyl-5-(trifluoromethyl)-1H-pyrazol-4-yl)-2,4,5,7-tetrahydro-6H-pyrazolo[3,4-c]pyridin-6-yl)(2-methoxy-3-methylpyridin-4-yl)methanone]
  IC50: 4.25 µM

## C[C@H]1c2nn(C)c(-c3cc(C(F)(F)F)nn3C)c2CCN1C(=O)c1cnn2cc(F)cc(F)c12 [Example 17, (S)-(4,6-Difluoropyrazolo[1,5-a]pyridin-3-yl)(2,7-dimethyl-3-(1-methyl-3-(trifluoromethyl)-1H-pyrazol-5-yl)-2,4,5,7-tetrahydro-6H-pyrazolo[3,4-c]pyridin-6-yl)methanone]
  IC50: 0.02 µM

## C[C@H]1c2nn(C)c(-c3cc(C(F)(F)F)n(C)n3)c2CCN1C(=O)c1cccc2cnn(C)c12 [Example 117, (S)-(2,7-Dimethyl-3-(1-methyl-5-(trifluoromethyl)-1H-pyrazol-3-yl)-2,4,5,7-tetrahydro-6H-pyrazolo[3,4-c]pyridin-6-yl)(1-methyl-1H-indazol-7-yl)methanone]
  IC50: 0.16 µM

## COc1ccc2nc(C)cc(C(=O)N3CCc4c(nn(C)c4-c4cc(C(F)(F)F)nn4C)[C@@H]3C)c2c1 [Example 26, (S)-(2,7-Dimethyl-3-(1-methyl-3-(trifluoromethyl)-1H-pyrazol-5-yl)-2,4,5,7-tetrahydro-6H-pyrazolo[3,4-c]pyridin-6-yl)(6-methoxy-2-methylquinolin-4-yl)methanone]
  IC50: 0.88 µM

## COc1nccc(C(=O)N2CCc3c(nn(C)c3-c3cc(C(F)(F)F)n(C)n3)[C@@H]2C)c1C [Example 121, (S)-(2,7-Dimethyl-3-(1-methyl-5-(trifluoromethyl)-1H-pyrazol-3-yl)-2,4,5,7-tetrahydro-6H-pyrazolo[3,4-c]pyridin-6-yl)(2-methoxy-3-methylpyridin-4-yl)methanone]
  IC50: 0.083 µM

## C[C@H]1c2nn(C)c(-c3cc(C(F)(F)F)nn3C)c2CCN1C(=O)c1nn(C)c2ccc(F)cc12 [Example 22, (S)-(2,7-Dimethyl-3-(1-methyl-3-(trifluoromethyl)-1H-pyrazol-5-yl)-2,4,5,7-tetrahydro-6H-pyrazolo[3,4-c]pyridin-6-yl)(5-fluoro-1-methyl-1H-indazol-3-yl)methanone]
  IC50: 0.03 µM

## COc1cccc(C(=O)N2[C@@H]3CCC[C@H]2c2nn(C)c(-c4cc(C)nn4C)c2C3)c1C (stereo in doubt) [Example 73, ((5R,9S)-3-(1,3-Dimethyl-1H-pyrazol-5-yl)-2-methyl-4,5,6,7,8,9-hexahydro-2H-5,9-epiminocycloocta[c]pyrazol-10-yl)(3-methoxy-2-methylphenyl)methanone]
  IC50: 0.23 µM

## C[C@H]1c2nn(C)c(-c3cnn(-c4ccccn4)c3)c2CCN1C(=O)c1ccc2ncccc2c1 [Example 70, (S)-(2,7-Dimethyl-3-(1-(pyridin-2-yl)-1H-pyrazol-4-yl)-2,4,5,7-tetrahydro-6H-pyrazolo[3,4-c]pyridin-6-yl)(quinolin-6-yl)methanone]
  IC50: 1.23 µM

## C[C@H]1c2nn(C)c(-c3cc(C(F)(F)F)nn3C)c2CCN1C(=O)c1ccccc1C(F)(F)F [Example 29, (S)-(2,7-Dimethyl-3-(1-methyl-3-(trifluoromethyl)-1H-pyrazol-5-yl)-2,4,5,7-tetrahydro-6H-pyrazolo[3,4-c]pyridin-6-yl)(2-(trifluoromethyl)phenyl)methanone]
  IC50: 0.15 µM

## Cc1ccc2c(C(=O)N3[C@@H]4CCC[C@H]3c3nn(C)c(-c5cc(C(F)(F)F)nn5C)c3C4)nccc2n1 [Example 82, (2-Methyl-1,6-naphthyridin-5-yl)((5R,9S)-2-methyl-3-(1-methyl-3-(trifluoromethyl)-1H-pyrazol-5-yl)-4,5,6,7,8,9-hexahydro-2H-5,9-epiminocycloocta[c]pyrazol-10-yl)methanone]
  IC50: 0.074 µM

## Cn1nc(-c2c3c(nn2C)[C@@H]2CCC[C@H](C3)N2C(=O)c2ccc3ncccc3c2)cc1C(F)(F)F [Example 87, ((5R,9S)-2-Methyl-3-(1-methyl-5-(trifluoromethyl)-1H-pyrazol-3-yl)-4,5,6,7,8,9-hexahydro-2H-5,9-epiminocycloocta[c]pyrazol-10-yl)(quinolin-6-yl)methanone]
  IC50: 0.017 µM

## C[C@H]1c2nn(C)c(-c3cnn(C)c3C(F)(F)F)c2CCN1C(=O)c1cccc2cnn(C)c12 [Example 31, (S)-(2,7-Dimethyl-3-(1-methyl-5-(trifluoromethyl)-1H-pyrazol-4-yl)-2,4,5,7-tetrahydro-6H-pyrazolo[3,4-c]pyridin-6-yl)(1-methyl-1H-indazol-7-yl)methanone]
  IC50: 10 µM

## COc1cccc(C(=O)N2[C@@H]3CCC[C@H]2c2nn(C)c(-c4cc(C(F)(F)F)nn4C)c2C3)c1C (stereo in doubt) [Example 74, (3-Methoxy-2-methylphenyl)((5R,9S)-2-methyl-3-(1-methyl-3-(trifluoromethyl)-1H-pyrazol-5-yl)-4,5,6,7,8,9-hexahydro-2H-5,9-epiminocycloocta[c]pyrazol-10-yl)methanone]
  IC50: 0.019 µM

## Cn1nc(C(F)(F)F)cc1-c1c2c(nn1C)[C@@H]1CCC[C@H](C2)N1C(=O)c1n[nH]c2ncc(F)cc12 [Example 81, (5-Fluoro-1H-pyrazolo[3,4-b]pyridin-3-yl)((5R,9S)-2-methyl-3-(1-methyl-3-(trifluoromethyl)-1H-pyrazol-5-yl)-4,5,6,7,8,9-hexahydro-2H-5,9-epiminocycloocta[c]pyrazol-10-yl)methanone]
  IC50: 0.1 µM

## C[C@H]1c2nn(C)c(-c3cc(C(F)(F)F)nn3C)c2CCN1C(=O)c1ccc2ncccc2c1 [Example 65, (S)-(2,7-Dimethyl-3-(1-methyl-3-(trifluoromethyl)-1H-pyrazol-5-yl)-2,4,5,7-tetrahydro-6H-pyrazolo[3,4-c]pyridin-6-yl)(quinolin-6-yl)methanone]
  IC50: 0.039 µM

## Cc1ccc2cc(C(=O)N3CCc4c(nn(C)c4-c4cnn(C)c4C(F)(F)F)[C@@H]3C)cc(C)c2n1 [Example 33, (S)-(2,7-Dimethyl-3-(1-methyl-5-(trifluoromethyl)-1H-pyrazol-4-yl)-2,4,5,7-tetrahydro-6H-pyrazolo[3,4-c]pyridin-6-yl)(2,8-dimethylquinolin-6-yl)methanone]
  IC50: 6.47 µM

## Cc1cc(C(=O)N2CCc3c(nn(C)c3-c3cc(C(F)(F)F)nn3C)[C@@H]2C)c2cnn(C)c2n1 [Example 15, (S)-(1,6-Dimethyl-1H-pyrazolo[3,4-b]pyridin-4-yl)(2,7-dimethyl-3-(1-methyl-3-(trifluoromethyl)-1H-pyrazol-5-yl)-2,4,5,7-tetrahydro-6H-pyrazolo[3,4-c]pyridin-6-yl)methanone]
  IC50: 0.056 µM

## C[C@H]1c2nn(C)c(-c3cc(C(F)(F)F)n(C)n3)c2CCN1C(=O)c1ccnc2c1ccn2C [Example 49, (S)-(2,7-Dimethyl-3-(1-methyl-5-(trifluoromethyl)-1H-pyrazol-3-yl)-2,4,5,7-tetrahydro-6H-pyrazolo[3,4-c]pyridin-6-yl)(1-methyl-1H-pyrrolo[2,3-b]pyridin-4-yl)methanone]
  IC50: 0.0032 µM

## Cc1cc(C(=O)N2CCc3c(nn(C)c3-c3cc(C(F)(F)F)n(C)n3)[C@@H]2C)cc(-n2nccn2)c1 [Example 50, (S)-(2,7-Dimethyl-3-(1-methyl-5-(trifluoromethyl)-1H-pyrazol-3-yl)-2,4,5,7-tetrahydro-6H-pyrazolo[3,4-c]pyridin-6-yl)(3-methyl-5-(2H-1,2,3-triazol-2-yl)phenyl)methanone]
  IC50: 0.023 µM

## C[C@H]1c2nn(C)c(-c3cnn(C)c3)c2CCN1C(=O)c1ccc2ncccc2c1 [Example 62, (S)-(2,7-Dimethyl-3-(1-methyl-1H-pyrazol-4-yl)-2,4,5,7-tetrahydro-6H-pyrazolo[3,4-c]pyridin-6-yl)(quinolin-6-yl)methanone]
  IC50: 1.94 µM

## Cc1cc(C)c2cc(C(=O)N3CCc4c(nn(C)c4-c4cc(C(F)(F)F)nn4C)[C@@H]3C)ccc2n1 [Example 94, (S)-(2,7-Dimethyl-3-(1-methyl-3-(trifluoromethyl)-1H-pyrazol-5-yl)-2,4,5,7-tetrahydro-6H-pyrazolo[3,4-c]pyridin-6-yl)(2,4-dimethylquinolin-6-yl)methanone]
  IC50: 0.039 µM

Reference: patent US11891387B2, “Monoacylglycerol lipase modulators” (Janssen Pharmaceutica NV, priority 2020, dated 2024)
